Target: T1, hKv3.1b (Homo sapiens, UniProt P48547)
T1 construct: expressed in transfected cells
T1 sequence (P48547 1-585 isoform P48547-2): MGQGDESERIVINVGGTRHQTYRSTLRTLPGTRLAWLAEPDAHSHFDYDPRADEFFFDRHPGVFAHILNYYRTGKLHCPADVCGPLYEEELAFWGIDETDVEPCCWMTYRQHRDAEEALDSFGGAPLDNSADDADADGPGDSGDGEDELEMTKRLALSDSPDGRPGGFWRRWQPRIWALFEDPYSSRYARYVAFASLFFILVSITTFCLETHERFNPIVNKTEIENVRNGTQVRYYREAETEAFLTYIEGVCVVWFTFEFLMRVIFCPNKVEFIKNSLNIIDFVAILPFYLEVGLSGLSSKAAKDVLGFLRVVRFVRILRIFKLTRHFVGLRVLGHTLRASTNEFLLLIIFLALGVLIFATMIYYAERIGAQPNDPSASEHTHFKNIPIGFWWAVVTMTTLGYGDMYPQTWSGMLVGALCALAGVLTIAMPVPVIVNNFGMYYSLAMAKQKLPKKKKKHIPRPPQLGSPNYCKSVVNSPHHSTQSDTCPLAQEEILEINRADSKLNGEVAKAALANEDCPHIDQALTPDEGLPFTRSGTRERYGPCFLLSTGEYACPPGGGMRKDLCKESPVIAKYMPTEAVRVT
Assay: Automated patch clamp (QPatch-16x) on HEK-293 cells stably expressing hKv3.1b
Type: cell-based
Conditions: for hKv3.1 (Qpatch) ECΔ30% increase: concentration increasing current by 30% at the −10 mV step; for hKv3.1 (Qpatch) ECΔ30% increase / hKv3.1 (Qpatch) ECΔ5 mV: automated patch clamp; for ECdelta5 mV: concentration needed to shift the activation threshold 5 mV; for hKv3.1 (Qpatch) ECΔ5 mV: concentration that shifts activation threshold by 5 mV in hyperpolarized direction; for Threshold Shift: maximum absolute hyperpolarizing shift of activation threshold at tested concentrations 0.37-30 μM
Summary of the method: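 Whole-cell automated patch clamp, extracellular pH 7.4, 4 mM Na2ATP intracellular; holding −80 mV, 200 ms steps −70 to +10 mV. Five ascending concentrations (0.37–30 μM) per cell, ~3 min each, 0.33% DMSO vehicle. Activation threshold (5% of vehicle peak at 10 mV) shift fitted sigmoidally; ECdelta5 mV read from curve.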

## Cc1ccc(S(=O)(=O)n2ccc(C(=O)NCc3ncco3)c2)cc1 [Compound 86, 1-(4-methylbenzene-1-sulfonyl)-N-[(1,3-oxazol-2-yl)methyl]-1H-pyrrole-3-carboxamide]
  hKv3.1 (Qpatch) ECΔ30% increase: 2.9 µM
  ECdelta5 mV: 2800 nM
  hKv3.1 (Qpatch) ECΔ5 mV: 2.7 µM
  Threshold Shift: 17 mV

## Cc1cnc(CNC(=O)c2ccn(S(=O)(=O)c3ccc(F)cc3C)c2)cn1 [Compound 90, 1-(4-fluoro-2-methylbenzene-1-sulfonyl)-N-[(5-methylpyrazin-2-yl)methyl]-1H-pyrrole-3-carboxamide]
  hKv3.1 (Qpatch) ECΔ30% increase: 1.6 µM
  ECdelta5 mV: 1300 nM
  hKv3.1 (Qpatch) ECΔ5 mV: 1.2 µM
  Threshold Shift: 32 mV

From US20200131156A1, “ARYLSULFONYLPYROLECARBOXAMIDE DERIVATIVES AS Kv3 POTASSIUM CHANNEL ACTIVATORS” (H. Lundbeck A/S, priority 2018, published 2020)
